# US20230339854A1, “Negative Allosteric Modulation of GluN3-Containing N-Methyl-D-Aspartate Receptors” (Emory University, priority 2020, published 2023)
# Where “and” joins values, the source holds several entries; their conditions need not be identical. Equal entries are not always repeated. Where two headings read alike, the source gives them in different places.
# Key:
# [1] = molecular target: T1, rat GluN1-4a/GluN3B receptors (Rattus norvegicus, UniProt Q8VHN2); assay: Two-electrode voltage-clamp recordings of GluN1-4a/GluN3B receptors in the presence of CGP-78608 (Xenopus oocytes); assay type: cell-based
# T1 construct: Human GluN3A (NP_597702.2) and rat GluN3B (NP_579842.2) were synthesized and subcloned into SP6 plasmids; expressed in transfected cells; host or cells: Xenopus laevis oocytes, cRNA injection
# Excerpt: cDNA encoding human wild-type (WT) GluN1-1a (GenBank accession numbers NP_015566, hereafter GluN1) and rat GluN1-1a (NP_058706.1) were synthesized and subcloned into pGEMHE plasmid; some experiments used the rat splice variant GluN1-4a (NP_001257531.1). Human GluN3A (NP_597702.2) and rat GluN3B (NP_579842.2) were synthesized and subcloned into SP6 plasmids. For most experiments, human GluN1 was co-expressed with human GluN3A, except for mutagenesis experiments where rat GluN1 was co-expressed with human GluN3A. Rat GluN1-4a was always expressed with rat GluN3B.
# Defolliculated Xenopus laevis oocytes (stage V-VI) were obtained from Ecocyte BioScience (Austin, Texas), or prepared from commercially available Xenopus ovaries (Xenopus 1, Dexter, MI) as previously described (Hansen, et al., Mol. Pharmacol., 2013). A Drummond Nanoject II (Broomall, PA) was used to inject oocytes with cRNAs encoding GluN1 and GluN3 at a 1:3 ratio in RNase-free water. The cRNA was diluted as needed to give responses with amplitudes ranging between 200-2000 nA (0.2-10 ng total cRNA). Following cRNA injection, the oocytes were stored at 15-19° C. in Barth's solution that contained (in mM) 88 NaCl, 2.4 NaHCO3, 1 KCl, 0.33 Ca(NO3)2, 0.41 CaCl2), 0.82 MgSO4, and 5 Tris-HCl (pH 7.4 with NaOH), supplemented with 1 μg/ml streptomycin (Invitrogen, Carlsbad, CA) and 100 μg/ml gentamicin (Fisher Scientific, Pittsburgh, PA). Recordings were performed 2-5 days following cRNA microinjection at room temperature (23° C.) using a two-electrode voltage-clamp amplifier (OC725, Warner Instrument, Hamilton, CT). The signal was low-pass filtered at 10-20 Hz (4-pole, −3 dB Bessel) and digitized at the Nyquist rate using PCI-6025E or USB-6212 BNC data acquisition boards (National Instruments, Austin, TX) using EasyOocyte (http://www.easyoocyte.io/). Oocytes were placed in a custom-made chamber and continuously perfused (2.5 ml/min) with oocyte recording solution containing (in mM) 90 NaCl, 1 KCl, 10 HEPES, 0.5-1.0 BaCl2, and 0.01 EDTA (pH 7.4 with NaOH). Solutions were applied by gravity, and solution exchange was controlled through a rotary valve (Hamilton, Reno, NV). Recording electrodes were filled with 0.3-3.0 M KCl, and current responses were recorded at a holding potential of −40 mV.
# Response (%)=(100−minimum)/(1+([concentration]/IC50)^nH)+minimum (2) • where nH is the Hill slope, IC50 is the concentration that produces a half-maximal effect, and minimum is the degree of residual inhibition at a saturating concentration of the negative allosteric modulator.
# Selected compounds were also screened in the same assay as EU1180-438 to determine their effect on GluN3B.
# [2] = In vivo pharmacokinetics and brain penetration in mice; parameters: species or system mouse
# Experimental: EU1180-438 was dosed at 20 mg/kg intraperitoneal in seven freely-fed male C57BL/6 mice. EU1180-438 was formulated in 5% DMA, 10% PEG, 30% HPBCD, qs to volume w/water.
# Plasma was sampled at seven points: pre-dose, 0.25, 0.5, 1, 2, 4, and 8 hours (n=3 per time point, 21 plasma samples per treatment group). […] Samples were analyzed via LC-MS/MS to quantify the amount of parent compound present in each sample.
# EU1180-438 was tested in male C57BL/6 mice for brain penetrability. After a single intraperitoneal dose of 20 mg/kg the concentration of EU1180-438 in the plasma was measured. […] The concentration of EU1180-438 in the brain was also measured to determine if the compound can pass the blood-brain barrier. The compound was detected in the brain tissue up to 8 hours after dosage administration.
# [3] = 500 nM CGP-78608 plus 100 μM glycine
# [4] = mice, 20 mg/kg intraperitoneal, 0.25 hour, 20 mg/kg
# [5] = mice, 20 mg/kg intraperitoneal, 1 hour, 20 mg/kg
# [6] = mice, 20 mg/kg intraperitoneal, 8 hour, 20 mg/kg
# T1 sequence (Q8VHN2 25-1002, other chains not shown): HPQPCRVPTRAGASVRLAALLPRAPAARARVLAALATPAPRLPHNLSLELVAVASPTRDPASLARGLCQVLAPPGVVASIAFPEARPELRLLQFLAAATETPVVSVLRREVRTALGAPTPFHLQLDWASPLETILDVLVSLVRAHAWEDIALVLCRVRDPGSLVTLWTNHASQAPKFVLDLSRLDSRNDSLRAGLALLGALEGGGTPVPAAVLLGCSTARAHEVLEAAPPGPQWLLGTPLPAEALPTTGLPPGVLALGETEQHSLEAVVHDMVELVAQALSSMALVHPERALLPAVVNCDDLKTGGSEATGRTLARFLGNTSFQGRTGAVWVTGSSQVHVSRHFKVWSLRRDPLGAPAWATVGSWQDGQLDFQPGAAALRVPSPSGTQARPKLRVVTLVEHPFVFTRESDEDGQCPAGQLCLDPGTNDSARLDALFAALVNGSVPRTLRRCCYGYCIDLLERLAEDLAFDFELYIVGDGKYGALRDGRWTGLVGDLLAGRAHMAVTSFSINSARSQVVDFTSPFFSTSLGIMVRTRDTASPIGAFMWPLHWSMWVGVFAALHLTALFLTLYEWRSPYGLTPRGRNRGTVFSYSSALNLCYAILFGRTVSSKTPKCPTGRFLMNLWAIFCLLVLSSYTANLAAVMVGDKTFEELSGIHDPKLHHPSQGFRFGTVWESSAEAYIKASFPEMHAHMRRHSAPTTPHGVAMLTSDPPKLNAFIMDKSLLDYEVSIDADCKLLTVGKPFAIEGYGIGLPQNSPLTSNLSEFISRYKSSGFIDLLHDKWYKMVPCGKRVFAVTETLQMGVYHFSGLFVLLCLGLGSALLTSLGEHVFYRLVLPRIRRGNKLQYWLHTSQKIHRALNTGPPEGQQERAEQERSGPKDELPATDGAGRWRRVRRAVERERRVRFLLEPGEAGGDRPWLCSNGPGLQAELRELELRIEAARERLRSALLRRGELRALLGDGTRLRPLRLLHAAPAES
compound,measurement,setting,value
"COc1ccc(OCC(c2ccc(OC)cc2)N2Cc3ccccc3C2=O)cc1 (racemic) [EU1180-438, 2-(2-(4-methoxyphenoxy)-1-(4-methoxyphenyl)ethyl)isoindolin-1-one]",maximal inhibition,[1]; 500 nM CGP-78608,93%
same,Slope,[1]; [3],1.5
same,minimum,[1]; [3],7%
same,% Inhibition GluN1/GluN3B + CGP,"[1]; fitted maximum at saturating test compound, pH 7.4, 0.5 μM CGP-78608","93%, (n = 8)"
same,time after dosage up to which compound was detected in brain tissue,"[2]; male C57BL/6 mice, 20 mg/kg intraperitoneal",up to 8 hours
same,max concentration in plasma,"[2]; male C57BL/6 mice, single intraperitoneal dose of 20 mg/kg",2.75 µM
same,concentration at 0.25 h,"[2]; male, C57BL/6, mouse, brain, ip, 20 mg/kg, mice, 20 mg/kg intraperitoneal, 0.25 hour, read-out: Brain Concentration",3680 nM
same,Kp at 0.25 h,"[2]; male, C57BL/6, mouse, brain, ip, 20 mg/kg, mice, 20 mg/kg intraperitoneal, 0.25 hour, read-out: Brain to Plasma Ratio",1.6
same,Kp at 0.25 h,"[2]; male, C57BL/6, mouse, brain, ip, 20 mg/kg, mice, 20 mg/kg intraperitoneal, 0.25 hour, read-out: Mean Ratio (brain to plasma)",1.74
same,concentration at 1 h,"[2]; male, C57BL/6, mouse, brain, ip, 20 mg/kg, mice, 20 mg/kg intraperitoneal, 1 hour, read-out: Brain Concentration",1960 nM
same,Kp at 1 h,"[2]; male, C57BL/6, mouse, brain, ip, 20 mg/kg, mice, 20 mg/kg intraperitoneal, 1 hour, read-out: Brain to Plasma Ratio",1.57
same,Kp at 1 h,"[2]; male, C57BL/6, mouse, brain, ip, 20 mg/kg, mice, 20 mg/kg intraperitoneal, 1 hour, read-out: Mean Ratio (brain to plasma)",1.79
same,concentration at 2 h,"[2]; male, C57BL/6, mouse, brain, ip, 20 mg/kg, mice, 20 mg/kg intraperitoneal, 2 hour, read-out: Brain Concentration",1050 nM
same,Kp at 2 h,"[2]; male, C57BL/6, mouse, brain, ip, 20 mg/kg, mice, 20 mg/kg intraperitoneal, 2 hour, read-out: Mean Ratio (brain to plasma)",0.88
same,concentration at 8 h,"[2]; male, C57BL/6, mouse, brain, ip, 20 mg/kg, mice, 20 mg/kg intraperitoneal, 8 hour, read-out: Brain Concentration",60 nM
same,Kp at 8 h,"[2]; male, C57BL/6, mouse, brain, ip, 20 mg/kg, mice, 20 mg/kg intraperitoneal, 8 hour, read-out: Brain to Plasma Ratio",1.37
same,Kp at 8 h,"[2]; male, C57BL/6, mouse, brain, ip, 20 mg/kg, mice, 20 mg/kg intraperitoneal, 8 hour, read-out: Mean Ratio (brain to plasma)",1.02
same,concentration at 0.25 h,"[2]; male, C57BL/6, mouse, plasma, ip, 20 mg/kg, mice, 20 mg/kg intraperitoneal, 0.25 hour, read-out: Plasma Concentration",2300 nM
same,concentration at 1 h,"[2]; male, C57BL/6, mouse, plasma, ip, 20 mg/kg, mice, 20 mg/kg intraperitoneal, 1 hour, read-out: Plasma Concentration",1250 nM
same,concentration at 2 h,"[2]; male, C57BL/6, mouse, plasma, ip, 20 mg/kg, mice, 20 mg/kg intraperitoneal, 2 hour, read-out: Plasma Concentration",890 nM
same,concentration at 8 h,"[2]; male, C57BL/6, mouse, plasma, ip, 20 mg/kg, mice, 20 mg/kg intraperitoneal, 8 hour, read-out: Plasma Concentration",50 nM
same,Brain to Plasma Ratio,[2]; [4],1.98 and 1.64
same,Plasma Concentration,[2]; [4],2050 nM and 2210 nM
same,concentration at 0.25 h,"[2]; mice, 20 mg/kg intraperitoneal, 0.25 hour, 20 mg/kg, read-out: Brain Concentration",4060 nM and 3630 nM
same,Brain to Plasma Ratio,[2]; [5],1.96 and 1.83
same,Plasma Concentration,[2]; [5],1040 nM and 1170 nM
same,concentration at 0.25 h,"[2]; mice, 20 mg/kg intraperitoneal, 1 hour, 20 mg/kg, read-out: Brain Concentration",2040 nM and 2140 nM
same,Plasma Concentration,"[2]; mice, 20 mg/kg intraperitoneal, 2 hour, 20 mg/kg",920 nM and 960 nM
same,concentration at 0.25 h,"[2]; mice, 20 mg/kg intraperitoneal, 2 hour, 20 mg/kg, read-out: Brain Concentration",660 nM and 690 nM
same,Brain to Plasma Ratio,[2]; [6],0.90 and 0.72
same,Plasma Concentration,[2]; [6],40 nM
same,concentration at 0.25 h,"[2]; mice, 20 mg/kg intraperitoneal, 8 hour, 20 mg/kg, read-out: Brain Concentration",40 nM and 30 nM
same,half-life,"[2]; mouse, ip, plasma, male C57BL/6 mice, 20 mg/kg intraperitoneal",1.57 h
